# Source: patent publication US9243281B2, “Neuroprotective chemicals and methods for identifying and using same” (Board of Regents of The University of Texas System, priority 2013, dated 2016)
# System: nicotinamide salvage pathway in U2OS cells
# Test: nicotinamide flux analysis with 14C-labeled nicotinamide (TLC)
# Format: cell-based
# Conditions: 0.5 μM doxorubicin 48 h, then 6 h 14C-nicotinamide
# Method: FIGS. 6A-6B. P7C3-A20 enhances the flux of nicotinamide through the salvage pathway. (FIG. 6A) Cells were pre-treated with 0.5 μM doxorubicin for 48 hours, followed by 6 hours treatment with ^14C-nicotinamide in the presence of the indicated amount of P7C3-A20. Metabolites were extracted and analyzed by thin layer chromatography. (FIG. 6B) Quantification of the relative intensities of NAD and NMN from the thin layer chromatogram.
# NAMPT is the rate limiting enzyme in the salvage pathway whereby cells sequentially convert nicotinamide into nicotinamide […] mononucleotide (NMN) and NAD (Preiss and Handler, 1958). If active variants of P7C3 indeed bind to the NAMPT dimer in a manner fostering its activity, then these compounds should enhance the flux of nicotinamide through the salvage pathway. To test this hypothesis, ^14C-labeled nicotinamide was administered to cultured U2OS cells. Six hours later, cells were lysed in perchloric acid and cleared by centrifugation so that soluble materials could be separated by thin layer chromatography (TLC) followed by autoradiography.
# Logarithmically growing cells cultured in 6-well plates were treated with doxorubicin (0.5 μM) for 48 hours. […] Afterwards, the screen was scanned using the Typhoon scanner, and the ^14C-labeled compounds were quantified using Image J.
smiles,measurement,value
COc1cccc(NCC(F)Cn2c3ccc(Br)cc3c3cc(Br)ccc32)c1 (stereo not shown) [S10],conversion of radiolabeled nicotinamide into NMN and NAD,enhanced conversion of radiolabeled nicotinamide into NMN and NAD
